Measurements reported in patent US12495798B2, “Nicotinamide compound and herbicidal composition comprising compound” (KOREA RESEARCH INSTITUTE OF CHEMICAL TECHNOLOGY, priority 2019, dated 2025).

Columns and labels:
Assay type in all cases: in vivo
[1] = tested on: velvetleaf; test: Herbicidal activity test against upland field weeds (foliar treatment test); conditions: Abutilon theophrasti, 50 g ai/ha, scale 0-100, read-out: Foliar treatment herbicidal activity, velvet leaf
Outline: (§1)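 Visual 0–100 control ratings relative to untreated plants, taken 14 (or 21) days after spraying foliage at 50 or 75 g a.i./ha. Spray solution: 50% acetone with 0.1% Tween-20; plants kept in greenhouse at 30±5 °C, 14 h light/10 h dark.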

[2] = tested on: barnyard grass; test: Herbicidal activity test against upland field weeds (soil treatment test); parameters: key to Soil treatment herbicidal activity, barnyard grass: 0 (no control); 100 (complete control); conditions: 50 g ai/ha, scale 0 (no control) to 100 (complete control)
Outline: (§2)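 Weed control scored visually on a 0 (none) to 100 (complete) scale versus untreated pots at 14 or 21 days in greenhouse (30±5 °C, 14 h light). Test compounds, 50 or 75 g a.i./ha in 50% acetone/0.1% Tween-20, hand-sprayed onto soil one day post-sowing.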

[3] = tested on: fall panicum; test: as above; parameters: key to Soil treatment herbicidal activity, Fall panicum: 0 (no control); 100 (complete control); conditions: 50 g ai/ha, scale 0 (no control) to 100 (complete control)
Outline: as §2

[4] = tested on: wheat; test: Phytotoxicity test for field crops (soil treatment test); parameters: key: 0 (no harm); 9 (complete withered)
Outline: (§3)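 Visual injury grade 0–9 (0 no harm, 9 complete withered), relative to untreated control, read 10 and 20 days post-treatment. Compounds were sprayed onto soil one day after sowing at 19˜300 g a.i./ha in 33% acetone, 0.1% Tween-20, with plants then grown in a greenhouse at 30±5° C.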

[5] = tested on: rice; test: as above; parameters: key: 0 (no harm); 9 (complete withered)
Outline: as §3

[6] = tested on: soybean; test: as above; parameters: key: 0 (no harm); 9 (complete withered)
Outline: as §3

[7] = tested on: cotton; test: as above; parameters: key: 0 (no harm); 9 (complete withered)
Outline: as §3

[8] = tested on: corn; test: as above; parameters: key: 0 (no harm); 9 (complete withered)
Outline: as §3

[9] = tested on: sorghum; test: Herbicidal activity test against upland field weeds (foliar treatment test); conditions: Sorghum, 50 g ai/ha, scale 0-100
Outline: as §1

[10] = tested on: quack grass; test: Herbicidal activity test against upland field weeds (soil treatment test); parameters: key to Soil treatment herbicidal activity, quack grass: 0 (no control); 100 (complete control); conditions: 50 g ai/ha, scale 0 (no control) to 100 (complete control)
Outline: as §2

[11] = tested on: crabgrass; test: Herbicidal activity test against upland field weeds (foliar treatment test); parameters: key to Foliar treatment herbicidal activity, Crabgrass: 0 (no control); 100 (complete control); conditions: 50 g ai/ha, scale 0-100; for pest or weed control at 50 g/ha: Digitaria sanguinalis
Outline: as §1

[12] = tested on: crabgrass; test: Herbicidal activity test against upland field weeds (soil treatment test); parameters: key to Soil treatment herbicidal activity, Crabgrass: 0 (no control); 100 (complete control); conditions: 50 g ai/ha, scale 0 (no control) to 100 (complete control)
Outline: as §2

[13] = tested on: sorghum; test: as above; parameters: key to Soil treatment herbicidal activity, Sorghum: 0 (no control); 100 (complete control); conditions: 50 g ai/ha, scale 0 (no control) to 100 (complete control); for plant injury at 50 g/ha: Sorghum
Outline: as §2

[14] = tested on: indian jointvetch; test: Herbicidal activity test against upland field weeds (foliar treatment test); conditions: 50 g ai/ha, scale 0-100
Outline: as §1

[15] = 50 g ai/ha, Wheat (10 days after treatment)
[16] = 50 g ai/ha, Wheat (20 days after treatment)
[17] = 100 g ai/ha, Wheat (10 days after treatment)
[18] = 50 g ai/ha, Rice (10 days after treatment)
[19] = 50 g ai/ha, Rice (20 days after treatment)
[20] = 100 g ai/ha, Rice (10 days after treatment)
[21] = 100 g ai/ha, Rice (20 days after treatment)
[22] = 50 g ai/ha, Soybean (10 days after treatment)
[23] = 50 g ai/ha, Soybean (20 days after treatment)
[24] = 100 g ai/ha, Soybean (10 days after treatment)
[25] = 100 g ai/ha, Soybean (20 days after treatment)
[26] = 50 g ai/ha, Cotton (10 days after treatment)
[27] = 50 g ai/ha, Cotton (20 days after treatment)
[28] = 100 g ai/ha, Cotton (10 days after treatment)
[29] = 100 g ai/ha, Cotton (20 days after treatment)
[30] = 50 g ai/ha, Corn (10 days after treatment)
[31] = 50 g ai/ha, Corn (20 days after treatment)
[32] = 100 g ai/ha, Corn (10 days after treatment)
[33] = 100 g ai/ha, Corn (20 days after treatment)
[34] = 100 g ai/ha, Wheat (20 days after treatment)

| SMILES | pest or weed control at 50 g/ha [1] [%] | Soil treatment phytotoxicity, Wheat [4, 15] | Soil treatment phytotoxicity, Wheat [4, 17] | Soil treatment phytotoxicity, Rice [5, 18] | Soil treatment phytotoxicity, Rice [5, 19] | Soil treatment phytotoxicity, Rice [5, 20] | Soil treatment phytotoxicity, Rice [5, 21] | Soil treatment phytotoxicity, Soybean [6, 23] | Soil treatment phytotoxicity, Soybean [6, 25] | Soil treatment phytotoxicity, Cotton [7, 26] | Soil treatment phytotoxicity, Cotton [7, 27] | Soil treatment phytotoxicity, Cotton [7, 28] | Soil treatment phytotoxicity, Cotton [7, 29] | Soil treatment phytotoxicity, Corn [8, 30] | Soil treatment phytotoxicity, Corn [8, 31] | Soil treatment phytotoxicity, Corn [8, 32] | Soil treatment phytotoxicity, Corn [8, 33] | plant injury at 50 g/ha [9] [%] | Soil treatment herbicidal activity, quack grass [10] | pest or weed control at 50 g/ha [14] [%] | other results |
| --- | --- | --- | --- | --- | --- | --- | --- | --- | --- | --- | --- | --- | --- | --- | --- | --- | --- | --- | --- | --- | --- |
| Cn1nnc(COCc2nc(C(F)F)ccc2C(=O)Nc2nnnn2C)n1 [Compound No. 2-84, 6-(difluoromethyl)-N-(1-methyl-1H-tetrazol-5-yl)-2-(((2-methyl-2H-tetrazol-5-yl)methoxy)methyl)nicotinamide] | 98 | 0 | 0 | 5 | 3 | 6 | 7 | 0 | 0 | 0 | 6 | 3 | 7 | 0 | 0 | 1 | 0 | 90 | 0 | 70 | pest or weed control at 50 g/ha ([2]; Echinochloa crus-galli): 70%; pest or weed control at 50 g/ha ([3]; Panicum dichotomiflorum): 20%; Soil treatment phytotoxicity, Wheat [4, 16]: 0; Soil treatment phytotoxicity, Soybean [6, 22]: 0; Soil treatment phytotoxicity, Soybean [6, 24]: 0; pest or weed control at 50 g/ha [11]: 95%; pest or weed control at 50 g/ha ([12]; Digitaria sanguinalis): 80%; plant injury at 50 g/ha [13]: 20% |
| Cn1nnc(COCc2nc(C(F)(F)F)ccc2C(=S)Nc2nnnn2C)n1 [Compound No. 2-106, N-(1-methyl-1H-tetrazol-5-yl)-2-(((2-methyl-2H-tetrazol-5-yl)methoxy)methyl)-6-(trifluoromethyl)pyridin-3-carbothioamide] | 95 | 0 | 0 | 8 | 8 | 9 | 9 | 0 | 0 | 4 | 6.5 | 5 | 8 | 0 | 0 | 0 | 0 | 70 | 0 | 80 | Soil treatment herbicidal activity, barnyard grass [2]: 100; Soil treatment herbicidal activity, Fall panicum [3]: 100; Soil treatment phytotoxicity, Wheat [4, 34]: 1; Soil treatment phytotoxicity, Soybean [6, 22]: 0; Soil treatment phytotoxicity, Soybean [6, 24]: 0; pest or weed control at 50 g/ha [11]: 70%; Soil treatment herbicidal activity, Crabgrass [12]: 100; plant injury at 50 g/ha [13]: 70% |
| Cn1nnc(CSCc2nc(C(F)F)ccc2C(=O)Nc2nnnn2C)n1 [Compound No. 2-108, 6-(difluoromethyl)-N-(1-methyl-1H-tetrazol-5-yl)-2-((((2-methyl-2H-tetrazol-5-yl)methyl)thio)methyl)nicotinamide] | 30 | 0 | 0 | 0 | 0 | 0 | 0 | 0 | 3 | 0 | 1 | 0 | 3 | 0 | 0 | 0 | 0 | 70 | 0 | 80 | Soil treatment herbicidal activity, barnyard grass [2]: 0; Soil treatment herbicidal activity, Fall panicum [3]: 0; Soil treatment phytotoxicity, Wheat [4, 16]: 0; Soil treatment phytotoxicity, Wheat [4, 34]: 0; pest or weed control at 50 g/ha [11]: 60%; Soil treatment herbicidal activity, Crabgrass [12]: 0; Soil treatment herbicidal activity, Sorghum [13]: 0 |
| Cn1nnc(CSCc2nc(C(F)(F)F)ccc2C(=O)N(C(=O)c2ccccc2)c2nnnn2C)n1 [Compound No. 2-109, N-benzoyl-N-(1-methyl-1H-tetrazol-5-yl)-2-((((2-methyl-2H-tetrazol-5-yl)methyl)thio)methyl)-6-(trifluoromethyl)nicotinamide] | 80 | 0 | 0 | 0 | 0 | 0 | 0 | 1 | 0 | 0 | 0 | 0 | 1 | 0 | 0 | 1 | 0 | 80 | 0 | 98 | Soil treatment herbicidal activity, barnyard grass [2]: 0; Soil treatment herbicidal activity, Fall panicum [3]: 0; Soil treatment phytotoxicity, Wheat [4, 16]: 0; Soil treatment phytotoxicity, Wheat [4, 34]: 0; Foliar treatment herbicidal activity, Crabgrass [11]: 100; Soil treatment herbicidal activity, Crabgrass [12]: 0; Soil treatment herbicidal activity, Sorghum [13]: 0 |
